Data reported in US20200289495A1, “METHODS OF INHIBITING ENDOTHELIN B RECEPTOR EXPRESSING TUMOR METASTASES” (ENB Therapeutics, Inc., priority 2020, published 2020).
Entries after “also recorded” stand apart in the source; their conditions may differ.

Legend:
[1] = test system: melanoma cell lines overexpressing ETBR; test: Mouse melanoma brain metastasis model (xenografts of ETBR-overexpressing melanoma cell lines); type: in vivo, mice; settings: 60 mg/kg/day
Method: FIGS. 5A, 5B, 5C, 5D, and 5E. ETBR antagonist inhibits melanoma brain metastasis in mice. […] In this study, lentiviral vectors were used to overexpress ETBR in melanoma cell lines, which were in turn used to implant xenografts in mice.
A192621 inhibits melanoma brain metastasis in mice (FIGS. 5A, 5B, 5C, 5D, and 5E). […] A192621 was administered at a dose of 60 mg/kg/day using a mouse melanoma model. […] In this study, lentiviral vectors were used to overexpress ETBR in melanoma cell lines, which were in turn used to implant xenografts in mice. […]

[2] = Body weight of athymic nude mice under intranasal BQ788; type: in vivo
Method: FIG. 9. ETAR antagonist and Niacinamide mitigate weight loss from BQ788. Six week old athymic nude mice were administered the ETBR antagonist BQ788 intranasally in 20% DMSO at the indicated ascending doses over a period of 42 days. One group was additionally administered the ETAR antagonist Macitentan orally at a dose of 5 mg/kg daily. The drinking water of these mice was supplemented with the B vitamin niacinamide at a concentration of 0.3 mg/mL. […] Co-administration of the ETAR antagonist Macitentan with niacinamide supplementation mitigated this weight loss. […] Co-administration of ETAR antagonists and niacinamide with ETBR antagonists mitigated the adverse effects of ETBR antagonists when administered for therapeutic purposes.
ETAR antagonist and Niacinamide mitigate weight loss from B0788 (FIG. 9). Six week old athymic nude mice (n=3 per group) were administered the ETBR antagonist BQ788 intranasally in 20% DMSO at the indicated ascending doses over a period of 42 days. One group was additionally administered the ETAR antagonist Macitentan orally at a dose of 5 mg/kg daily. The drinking water of these mice was supplemented with the B vitamin niacinamide at a concentration of 0.3 mg/mL. […] Co-administration of the ETAR antagonist Macitentan with niacinamide supplementation mitigated this weight loss. […]

[3] = test system: SKMEL28 human melanoma cells; test: SKMEL28 human melanoma xenograft growth and lung metastasis in mice; type: in vivo
Method: FIGS. 4A and 4B. BQ788 inhibits melanoma growth and metastasis.
B0788 inhibits melanoma growth and metastasis (FIGS. 4A and 4B). […] Mice were implanted with 1×10^6 SKMEL28 human melanoma cells. Tumors were established for 10 days until palpable then 120 ng ([…]) BQ788 dissolved in DMSO was injected IP 3×per week×6 weeks. Mice were then sacrificed and lungs harvested and tumors weighed. A 75% reduction in tumor weight was observed.

[4] = test system: A375 human melanoma cells; test: A375 subcutaneous melanoma xenograft in Nu/J nude mice; type: in vivo; settings: Dabrafenib 100 mg/Kg PO daily, alone or + BQ788 600 ng IP TIW; day 11, p<0.05
Method: FIG. 7. BQ788 synergizes with Dabrafenib in vivo. A375 human melanoma cells were implanted subcutaneously into the rear flank of Nu/J nude mice and allowed to grow to 150 mm3-200 mm3 prior to randomization and initiation of treatment. The mice received the following treatments: (1) vehicle (n=8), (2) Dabrafenib 100 mg/Kg PO daily (n=5), and (3) Dabrafenib+BQ788 600 ng IP TIW (n=5).
B0788 synergizes with a bRAF inhibitor in vivo (FIG. 7). A375 human melanoma cells (3×10^6) were implanted subcutaneously into the rear flank of Nu/J nude mice and allowed to grow to 150 mm3-200 mm3 prior to randomization and initiation of treatment. The treatment groups were as follows: (1) vehicle (n=8), Dabrafenib 100 mg/Kg PO daily (n=5), (2) Dabrafenib+BQ788 600 ng IP 3×per week (n=5).

CCCOc1ccc([C@H]2[C@H](C(=O)O)[C@@H](c3ccc4c(c3)OCO4)CN2CC(=O)Nc2c(CC)cccc2CC)cc1 [A192621, (2R,3R,4S)-4-(1,3-benzodioxol-5-yl)-1-[2-(2,6-diethylanilino)-2-oxoethyl]-2-(4-propoxyphenyl)pyrrolidine-3-carboxylic acid]
CNS melanoma tumors [1]: shrinks CNS melanoma tumors
brain melanoma metastases [1]: shrinks brain melanoma metastases
survival [1]: increases survival

CCCC[C@@H](NC(=O)[C@@H](Cc1cn(C(=O)OC)c2ccccc12)NC(=O)[C@H](CC(C)(C)C)NC(=O)N1[C@H](C)CCC[C@@H]1C)C(=O)O [BQ788]
average weight loss relative to baseline body weight ([2]; BQ788 intranasally in 20% DMSO, ascending doses over 42 days, end of study): 5%
body weight / thriving ([2]; BQ788 intranasally over 42 days, alone or with Macitentan 5 mg/kg daily orally and niacinamide 0.3 mg/mL in drinking water): failed to thrive
clearance of lung metastases ([3]; 120 ng (˜60 ug/kg) BQ788 in DMSO IP 3× per week × 6 weeks, lungs vs control mice): > 95%
apoptosis in melanoma tumor cells ([3]; FIGS. 4A and 4B): induces apoptosis

CC(C)(C)c1nc(-c2cccc(NS(=O)(=O)c3c(F)cccc3F)c2F)c(-c2ccnc(N)n2)s1 [Dabrafenib]
tumor growth [4]: retarded the growth of tumors; also recorded: retarded tumor growth
